A short description of the first series: Vapor pressure of the perfluorochemical. The note with it: 37.5° C.
For `FC(F)(F)C(F)(F)C(F)(OC(F)(F)C(F)(C(F)(F)F)C(F)(F)F)C(F)(C(F)(F)F)C(F)(F)F` (stereo not shown) [Ex. 4, Perfluoro-3-isobutoxy-2-methyl pentane], the Vapor pressure is on record as 14-15 mmHg.
Consider `FC(F)(F)C(F)(F)C(F)(OC(F)(C(F)(F)F)C(F)(F)F)C(F)(C(F)(F)F)C(F)(F)F` (stereo not shown) [Ex. 2, Perfluroo-3-isopropoxy-2-methylpentane], for which the Vapor pressure is 35-36 mmHg.
On the same count and under the same terms, then `FC(F)(F)C(F)(F)C(F)(OC(F)(F)C(F)(F)C(F)(C(F)(F)F)C(F)(F)F)C(F)(C(F)(F)F)C(F)(F)F` (stereo not shown) [Ex. 6, Perfluoro-3-isopentoxy-2-methylpentane], with 8-9 mmHg.

The series is the same for the next values; noted with them: 38° C.
As to `FC(F)(F)OC(F)(F)C(F)(C(F)(F)F)C(F)(OC(F)(F)F)C(F)(F)C(F)(F)F` (stereo not shown) [Example 29, perfluoro-1,3-dimethoxy-2-methylpentane], the Vapor pressure is on record as 48-50 mmHg.
The same measure, in the same setting: then `FC(F)(F)N(C(F)(F)C(F)(F)F)C(F)(F)C(F)(C(F)(F)F)C(F)(F)C(F)(F)C(F)(F)F` (stereo not shown) [Example 34, perfluoro-1-ethylmethylamino-2-methylpentane], with 21 mmHg; and `FC(F)(F)C(F)(F)C(F)(F)OC(OC(F)(F)C(F)(F)C(F)(F)F)(C(F)(F)F)C(F)(F)F` [Example 32, perfluoro-2,2-di-n-propoxy-propane], with 29-30 mmHg; and `FC(F)(F)N(C(F)(F)C(F)(F)F)C(F)(F)C(F)(C(F)(F)F)C(F)(F)C(F)(C(F)(F)F)C(F)(F)F` (stereo not shown) [Example 37, perfluoro-1-ethyl-methylamino-2,4-dimethylpentane], with 12-13 mmHg.
The same measure, in the same setting: the value for `FC(F)(F)C(F)(C(F)(F)F)C(F)(F)OC(F)(C(F)(C(F)(F)F)C(F)(F)F)C(F)(C(F)(F)F)C(F)(F)F` [Ex. 11, Perfluoro-3-isobutoxy-2,4-dimethylpentane] was 8-9 mmHg.
`FC(F)(F)C(F)(F)C(F)(F)OC(C(F)(F)F)(C(F)(F)F)C(F)(F)C(F)(F)C(F)(F)F` [Example 12, Perfluoro-2-n-propoxy-2-methylpentane] yielded a Vapor pressure of 33 mmHg.
On to `FC(F)(F)C(F)(F)OC(F)(C(F)(F)F)C(F)(C(F)(C(F)(F)F)C(F)(F)F)C(F)(C(F)(F)F)C(F)(F)F` (stereo not shown) [Example 27, perfluoro-2-ethoxy-3-isopropyl-4-methylpentane], for which the Vapor pressure is on record as 10-11 mmHg.
Consider `FC(F)(F)C(F)(F)C(F)(F)C(OC(F)(F)C(F)(F)C(F)(C(F)(F)F)C(F)(F)F)(C(F)(F)F)C(F)(F)F` [Ex. 17, Perfluoro-2-isovaleroxy-2-methylpentane], for which the Vapor pressure is given as 9-10 mmHg.
Same read-out and setting: then `FC(F)(F)C(F)(F)C(F)(F)C(F)(F)C(F)(F)C(F)(F)C(F)(F)OC(F)(C(F)(F)F)C(F)(F)F` [Ex. 20, Perfluoro-1-isopropoxyheptane], with 14-15 mmHg.
Still for that read-out and setting: the value for `FC(F)(F)N(C(F)(F)F)C(F)(C(F)(C(F)(F)F)C(F)(F)F)C(F)(C(F)(F)F)C(F)(F)F` [Example 44, perfluoro-3-dimethylamino-2,4-dimethylpentane] was 21-22 mmHg.
The same measure, in the same setting: then `FC(F)(F)C(F)(F)C(F)(F)OC(F)(C(F)(F)C(F)(F)F)C(F)(C(F)(F)F)C(F)(F)F` (stereo not shown) [Example 1, perfluoro-3-n-propoxy-2-methylpentane], with 29 mmHg; and `FC(F)(F)C(F)(F)OC(F)(C(F)(C(F)(F)F)C(F)(F)F)C(F)(C(F)(F)F)C(F)(F)F` [Ex. 8, Perfluoro-3-ethoxy-2,4-dimethylpentane], with 30-31 mmHg.
On to `FC(F)(F)C(F)(F)C(F)(F)C(F)(F)C(F)(F)C(F)(F)C(F)(F)OC(F)(C(F)(F)F)C(F)(F)C(F)(F)F` (stereo not shown) [Ex. 23, Perfluoro-1-sec-butoxyheptane], for which the Vapor pressure was 9-10 mmHg.
Consider `FC(F)(F)C(F)(F)OC(OC(F)(F)C(F)(F)C(F)(F)C(F)(F)C(F)(F)F)(C(F)(F)F)C(F)(F)F` [Example 31, perfluoro-2-pentoxy-2-ethoxy propane], for which the Vapor pressure is 13-14 mmHg.
Still for that read-out and setting: the value for `FC(F)(F)OC(F)(C(F)(F)F)C(F)(C(F)(C(F)(F)F)C(F)(F)F)C(F)(C(F)(F)F)C(F)(F)F` (stereo not shown) [Example 26, perfluoro-2-methoxy-3-isopropyl-4-methylpentane] was 18-19 mmHg; that for `FC(F)(F)C(F)(F)C(F)(F)C(F)(F)OC(F)(F)C(F)(F)C(F)(F)C(F)(F)C(F)(F)C(F)(F)C(F)(F)F` [Ex. 21, Perfluoro-1-n-butoxyheptane] was 8-9 mmHg.
Turning to `FC(F)(F)N(C(F)(F)F)C(F)(F)C(F)(C(F)(F)F)C(F)(F)C(F)(C(F)(F)F)C(F)(F)F` (stereo not shown) [Example 36, Perfluoro-1-dimethylamino-2,4-dimethylpentane], the Vapor pressure is 18-19 mmHg.
As for `FC(F)(F)N(C(F)(F)C(F)(F)F)C(C(F)(F)F)(C(F)(F)F)C(F)(F)C(F)(F)C(F)(F)F` [Example 39, Perfluoro-2-methylethylamino-2-methylpentane], the Vapor pressure is reported as 20-21 mmHg.
Still for that read-out and setting: the value for `FC(F)(F)N(C(F)(F)F)C(F)(F)C(C(F)(F)F)(C(F)(F)F)C(F)(F)C(F)(F)C(F)(F)F` [Example 41, Perfluoro-1-dimethylamino-2,2-dimethylpentane] was 18-19 mmHg; that for `FC(F)(F)C(F)(F)C(F)(F)C(F)(F)OC(F)(C(F)(C(F)(F)F)C(F)(F)F)C(F)(C(F)(F)F)C(F)(F)F` [Ex. 10, Perfluoro-3-n-butoxy-2,4-dimethylpentane] was 8-9 mmHg; that for `FC(F)(F)C(F)(F)C(F)(F)OC(F)(C(F)(C(F)(F)F)C(F)(F)F)C(F)(C(F)(F)F)C(F)(F)F` [Example 7, Perfluoro-3-propoxy-2,4-dimethylpentane] was 16-17 mmHg.
The same measure, in the same setting: the value for `FC(F)(F)C(F)(F)C(F)(F)C(F)(F)OC(C(F)(F)F)(C(F)(F)F)C(F)(F)C(F)(F)C(F)(F)F` [Ex. 14, Perfluoro-2-n-butoxy-2-methylpentane] was 13-14 mmHg.
The same measure, in the same setting: then `FC(F)(F)N(C(F)(F)C(F)(F)C(F)(F)F)C(C(F)(F)F)(C(F)(F)F)C(F)(F)C(F)(F)C(F)(F)F` [Example 40, perfluoro-2-methylpropylamino-2-methylpentane], with 9-10 mmHg.
With `FC(F)(F)C(F)(F)OC(F)(C(F)(F)F)C(F)(F)C(C(F)(F)F)(C(F)(F)C(F)(F)F)C(F)(F)C(F)(F)F` (stereo not shown) [Example 25, perfluoro-2-ethoxy-4-ethyl-4-methylhexane], the Vapor pressure is listed as 8-9 mmHg.
Same read-out and setting: the value for `FC(F)(F)OC(F)(C(F)(F)F)C(F)(F)C(C(F)(F)F)(C(F)(F)C(F)(F)F)C(F)(F)C(F)(F)F` (stereo not shown) [Example 24, perfluoro-2-methoxy-4-ethyl-4-methylhexane] was 17-18 mmHg.
Same read-out and setting: then `FC(F)(F)C(F)(F)OC(F)(F)C(F)(F)C(F)(F)C(F)(F)C(F)(F)C(F)(F)C(F)(F)F` [Ex. 19, Perfluoro-1-ethoxyheptane], with 33 mmHg; and `FC(F)(F)C(F)(F)C(F)(F)C(OC(F)(C(F)(F)F)C(F)(F)F)(C(F)(F)F)C(F)(F)F` [Ex. 13, Perfluoro-2-isopropoxy-2-methylpentane], with 29-30 mmHg; and `FC(F)(F)N(C(F)(F)F)C(F)(F)C(F)(C(F)(F)F)C(F)(F)C(F)(F)C(F)(F)F` (stereo not shown) [Example 33, perfluoro-1-dimethylamino-2-methylpentane], with 37-38 mmHg.

The values are drawn from patent US4943595A, “Perfluorochemicals and process for preparing the same” (The Green Cross Corporation, priority 1984, dated 1990).
